Laboratory results published in patent US20230227466A1, “SUBSTITUTED THIENOPYRIMIDINES THAT INTERACT WITH THE RAS SUPERFAMILY FOR THE TREATMENT OF CANCERS, INFLAMMATORY DISEASES, RASOPATHIES, AND FIBROTIC DISEASE” (SHY Therapeutics, LLC, priority 2020, published 2023).
Where two headings read alike, the source gives them in different places.

How the values were obtained:
[1] = tested on: Akt phosphorylation in Panc-1 cells; assay: Western AKT cell-based phosphorylation assay; set-up: species or system human; conditions: at 10 μM, values in brackets < > are activation %, not inhibition
In short: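 Phospho-Akt (Ser473) western blot of Panc-1 lysates, with Ponceau S to confirm uniform loading. Before lysis, cells were serum-starved overnight (0.5% FBS), incubated 6 h at 37° C with 10 μM compound in 0.3% DMSO and stimulated 15 min with 1.5 ng/ml EGF.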

[2] = tested on: MIA-PaCa-2 pancreatic cancer cell line (KRAS G12C); assay: Cell proliferation assay (CellTiter 96 Aqueous One); type: cell-based; conditions: Homo sapiens; for IC50: MIA PaCa-2, MIA PaCa-2; for inhibition at 10 µM: MIA PaCa-2, read-out: % inh cell proliferation (10 μM) in MIA PaCa-2
In short: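 After overnight attachment, compounds are added (10 μM final or serial dilutions) and left 2–4 days, with viability then measured by MTS.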

KRas G12C mutant = target: T1, KRas G12C mutant (Homo sapiens, UniProt P01116, G12C); assay: Ras GTP binding domain inhibition assay (labeled-GTP competition, cell-free)
T1 construct: made in house
In short: (§1)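 His-tagged protein immobilized on Ni-coated wells overnight at 4 °C. Compounds (20 μM single point or serial dilution for IC50) incubated 3 h at RT, ± Sos (residues 556-1049, 10-30 μg/mL) during the final hour. Cy3- or Cy5-GTP (100 nM) then added for 45 min; bound label read by fluorescence after washing.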

KRas G12D mutant = target: T2, KRas G12D mutant (Homo sapiens, UniProt P01116, G12D); assay: as above
T2 construct: made in house
In short: as §1

KRas wild type = KRas wild type (Homo sapiens, UniProt P01116); assay: as above; set-up: made in house
In short: as §1

Rho-A = Rho-A (Homo sapiens, UniProt P61586); assay: as above; set-up: made in house; conditions: without SOS, read-out: Rho-A: % inh.
In short: as §1

Rac-1 = Rac-1 (Homo sapiens, UniProt P63000); assay: as above; set-up: made in house; conditions: without SOS, read-out: Rac-1: % inh.
In short: as §1

[3] = with SOS, read-out: KRas G12C mutant + SOS: % inh.
[4] = without SOS, read-out: KRas G12C mutant: % inh.
[5] = with SOS, read-out: KRas G12D mutant + SOS: % inh.
[6] = without SOS, read-out: KRas G12D mutant: % inh.
[7] = with SOS, read-out: KRas wild type + SOS: % inh.
[8] = without SOS, read-out: KRas wild type: % inh.

Row | Structure (SMILES) | % inh of AKT phosphorylation in PANC-1 [1] | IC50 [2] [µM] | inhibition at 10 µM [2] [%] | inhibition at 20 µM (KRas G12C mutant; [3]) [%] | inhibition at 20 µM (KRas G12C mutant; [4]) [%] | inhibition at 20 µM (KRas G12D mutant; [5]) [%] | inhibition at 20 µM (KRas G12D mutant; [6]) [%] | inhibition at 20 µM (KRas wild type; [7]) [%] | inhibition at 20 µM (KRas wild type; [8]) [%] | inhibition at 20 µM (Rho-A) [%] | inhibition at 20 µM (Rac-1) [%]
1 | COc1ccnc(Nc2nc(-c3nccn3C)nc3sc(-c4ccn(C(C)C)n4)c(C)c23)n1 [Compound 68, 6-(1-Isopropyl-1H-pyrazol-3-yl)-N-(4-methoxypyrimidin-2-yl)-5-methyl-2-(1-methyl-1H-imidazol-2-yl)thieno[2,3-d]pyrimidin-4-amine] | <A> | 1 to 4.99 | 76 to 100 | 51 to 75 | 76 to 100 | 76 to 100 | 76 to 100 | 76 to 100 | 76 to 100 | 76 to 100 | 76 to 100
2 | Cc1c(-c2ccn(C(C)C)n2)sc2nc(-c3ccccn3)nc(N3CCC(COC(C)C)C3)c12 (centres unmarked) [Compound 72, 4-(3-(Isopropoxymethyl)pyrrolidin-1-yl)-6-(1-isopropyl-1H-pyrazol-3-yl)-5-methyl-2-(pyridin-2-yl)thieno[2,3-d]pyrimidine] | B (26-50% inhibition) | 5 to 10 | 51 to 75 | 1 to 25 | 0 | 0 | 51 to 75 | 0 | 1 to 25 | 1 to 25 | 0
3 | COCCn1cnc(-c2nc(O)c3scc(-c4ccccn4)c3n2)c1 [Compound 78, 2-(1-(2-Methoxyethyl)-1H-imidazol-4-yl)-7-(pyridin-2-yl)thieno[3,2-d]pyrimidin-4-ol] | 0 (0% inhibition) | 5 to 10 | 51 to 75 | 51 to 75 | 51 to 75 | 51 to 75 | 76 to 100 | 51 to 75 | 76 to 100 | 51 to 75 | 51 to 75
4 | COCCCn1ccnc1-c1nc(O)c2scc(-c3ccccn3)c2n1 [Compound 79, 2-(1-(3-Methoxypropyl)-1H-imidazol-2-yl)-7-(pyridin-2-yl)thieno[3,2-d]pyrimidin-4-ol] | <B> | 1 to 4.99 | 76 to 100 | 51 to 75 | 51 to 75 | 51 to 75 | 51 to 75 | 51 to 75 | 76 to 100 | 76 to 100 | 51 to 75
5 | CCOCCn1ccnc1-c1nc(O)c2scc(-c3ccccn3)c2n1 [Compound 80, 2-(1-(2-Ethoxyethyl)-1H-imidazol-2-yl)-7-(pyridin-2-yl)thieno[3,2-d]pyrimidin-4-ol] | <D> | 1 to 4.99 | 76 to 100 | 51 to 75 | 51 to 75 | 76 to 100 | 76 to 100 | 51 to 75 | 76 to 100 | 51 to 75 | 76 to 100
6 | Oc1nc(-c2nccn2CCOCC(F)(F)F)nc2c(-c3ccccn3)csc12 [Compound 81, 7-(Pyridin-2-yl)-2-(1-(2-(2,2,2-trifluoroethoxy)ethyl)-1H-imidazol-2-yl)thieno[3,2-d]pyrimidin-4-ol] | <D> | 1 to 4.99 | 76 to 100 | 51 to 75 | 51 to 75 | 76 to 100 | 51 to 75 | 76 to 100 | 76 to 100 | 76 to 100 | 76 to 100
7 | CC(C)OCCn1ccnc1-c1nc(O)c2scc(-c3ccccn3)c2n1 [Compound 82, 2-(1-(2-Isopropoxyethyl)-1H-imidazol-2-yl)-7-(pyridin-2-yl)thieno[3,2-d]pyrimidin-4-ol] | <D> | 1 to 4.99 | 76 to 100 | 51 to 75 | 51 to 75 | 51 to 75 | 51 to 75 | 51 to 75 | 51 to 75 | 51 to 75 | 76 to 100
